Test results taken from US20110207771A1, “N-(L-ALKYL-2-PHENYLETHYL)-CARBOXAMIDE DERIVATIVES AND USE THEREOF AS FUNGICIDES” (SYNGENTA CROP PROTECTION, INC., priority 2006, published 2011).
One block for each molecule: values may come before it.

Columns and labels:
[1] = test system: Mycosphaerella arachidis (Cercospora arachidicola); assay: Example B-12: action against Mycosphaerella arachidis, fungal growth assay; type: cell-based; details: 6-7 days
Description: (§1) Example B-12: Action Against Mycosphaerella arachidis (Early Leaf Spot of Groundnut; Cercospora arachidicola (Anamorph))—Fungal Growth Assay Conidia of the fungus from cryogenic storage were directly mixed into nutrient broth (PDB potato dextrose broth). After placing a (DMSO) solution of the test compounds into a microtiter plate (96-well format) the nutrient broth containing the fungal spores was added. The test plates were incubated at 24° C. and the inhibition of growth was measured photometrically after 6-7 days. The activity of a compound is expressed as fungal growth inhibition (0=no growth inhibition, ratings of 80% to 99% mean good to very good inhibition, 100%=complete inhibition).

[2] = test system: Septoria tritici; assay: Example B-13: action against Septoria tritici, fungal growth assay; type: cell-based; details: for fungal growth inhibition: 72 hrs
Description: as §1, with “B-13:” for “B-12:”, “Septoria tritici—Fungal” for “Mycosphaerella arachidis (Early Leaf Spot of Groundnut; Cercospora arachidicola (Anamorph))—Fungal”, “determined” for “measured”, “72 hrs.” for “6-7 days.”

[3] = test system: Botrytis cinerea; assay: Example B-11: action against Botrytis cinerea, fungal growth assay; type: cell-based; details: 48-72 hrs
Description: as §1, with “B-11:” for “B-12:”, “Botrytis cinerea—Fungal” for “Mycosphaerella arachidis (Early Leaf Spot of Groundnut; Cercospora arachidicola (Anamorph))—Fungal”, “determined” for “measured”, “48-72 hrs.” for “6-7 days.”

[4] = test system: Monographella nivalis (Fusarium nivale, Microdochium nivale); assay: Example B-14: action against Monographella nivalis, fungal growth assay; type: cell-based; details: 72 hrs
Description: Example B-14: Action Against Monographella nivalis (Anamorph: Fusarium nivale, Microdochium nivale; Snow Mould)—Fungal Growth Assay After placing a DMSO-solution (2% Dimethylsulfoxid, 0.025% Tween 20) of the test compounds into a microtiter plate (96-well format) the nutrient broth containing the fungal spores was added. 40.000 conidia/ml of the fungus from cryogenic storage were directly mixed into nutrient broth (PDB potato dextrose broth). The compounds were tested at a variety of application rates; these rates are shown in parts per million (ppm) in the table. The test plates were incubated at 24° C. and the inhibition of growth was measured photometrically after 72 hrs (0=no growth inhibition, ratings of 80% to 99% mean good to very good inhibition, 100%=complete inhibition).

[5] = test system: Pyrenophora teres; assay: Example B-15: action against Pyrenophora teres (net blotch) on barley leaf segments; type: in vivo; details: 4 days after inoculation
Description: Example B-15: Action Against Pyrenophora teres (Net Blotch) on Barley Barley leaf segments are placed on agar in multiwell plates (24-well format) and sprayed with test solutions (200 ppm, […], and 20 ppm of active ingredient). After drying, the leaf disks are inoculated with a spore suspension of the fungus. After appropriate incubation the activity of a compound is assessed 4 days after inoculation as preventive fungicidal activity (in %).

Compound: CC(Cc1ccc(Cl)cc1Cl)NC(=O)c1cn(C)nc1C(F)F (single isomer, unassigned; (+)) [(+)-3-difluoromethyl-1-methyl-1H-pyrazole-4-carboxylic acid [2-(2,4-dichlorophenyl)-1-methyl-ethyl]-amide]
inhibition at 20 ppm ([1]; Mycosphaerella arachidis, 20 ppm): 100%
inhibition at 6 ppm ([2]; Zymoseptoria tritici, 72 h, 6 ppm): 100%
inhibition at 20 ppm ([2]; Zymoseptoria tritici, 72 h, 20 ppm): 100%

Compound: CC(Cc1ccc(Cl)cc1Cl)NC(=O)c1cn(C)nc1C(F)F (single isomer, unassigned; (+)) [(+)-3-difluoromethyl-1-methyl-1H-pyrazole-4-carboxylic acid ] [(+)-3-difluoromethyl-1-methyl-1H-pyrazole-4-carboxylic acid [2-(2,4-dichlorophenyl)-1-methyl-ethyl]-amide]
fungal growth inhibition ([3]; 2 ppm): 80%
fungal growth inhibition ([3]; 6 ppm): 100%
fungal growth inhibition ([3]; 20 ppm): 100%
inhibition of growth ([4]; 2 ppm): 100%
inhibition of growth ([4]; 6 ppm): 100%
inhibition of growth ([4]; 20 ppm): 100%
preventive fungicidal activity ([5]; 20 ppm): 100%
preventive fungicidal activity ([5]; 60 ppm): 100%
preventive fungicidal activity ([5]; 200 ppm): 100%

Compound: CC(Cc1ccc(Cl)cc1Cl)NC(=O)c1cn(C)nc1C(F)F (single isomer, unassigned; (-)) [(−)-3-difluoromethyl-1-methyl-1H-pyrazole-4-carboxylic acid ] [(−)-3-difluoromethyl-1-methyl-1H-pyrazole-4-carboxylic acid [2-(2,4-dichlorophenyl)-1-methyl-ethyl]-amide]
fungal growth inhibition ([3]; 2 ppm): 0%
fungal growth inhibition ([3]; 6 ppm): 20%
fungal growth inhibition ([3]; 20 ppm): 20%
fungal growth inhibition ([1]; 2 ppm): 0%
fungal growth inhibition ([1]; 6 ppm): 50%
fungal growth inhibition ([1]; 20 ppm): 80%
fungal growth inhibition ([2]; 2 ppm): 0%
fungal growth inhibition ([2]; 6 ppm): 80%
fungal growth inhibition ([2]; 20 ppm): 100%
inhibition of growth ([4]; 2 ppm): 0%
inhibition of growth ([4]; 6 ppm): 0%
inhibition of growth ([4]; 20 ppm): 20%
preventive fungicidal activity ([5]; 20 ppm): 80%
preventive fungicidal activity ([5]; 60 ppm): 100%
preventive fungicidal activity ([5]; 200 ppm): 100%

melting point: 157 °C
Compound: CC(Cc1ccc(Cl)cc1Cl)NC(=O)c1cn(C)nc1C(F)F (stereo not shown) [Compound 1.197, 3-difluoromethyl-1-methyl-1H-pyrazole-4-carboxylic acid [2-(2,4-dichlorophenyl)-1-methyl-ethyl]-amide]

melting point: 165 to 168 °C
Compound: Cn1cc(C(=O)NC2(Cc3ccc(Cl)cc3Cl)CC2)c(C(F)F)n1 [Compound 1.231, 3-difluoromethyl-1-methyl-1H-pyrazole-4-carboxylic acid [1-(2,4-dichlorobenzyl)-cyclopropyl]-amide]

melting point: 183 to 184 °C
Compound: CC(Cc1ccc(Br)cc1Cl)NC(=O)c1cn(C)nc1C(F)F (stereo not shown) [Compound 1.451, 3-difluoromethyl-1-methyl-1H-pyrazole-4-carboxylic acid [2-(4-bromo-2-chlorophenyl)-1-methyl-ethyl]-amide]

melting point: 96 to 98 °C
Compound: CC(Cc1ccc(-c2ccc(Cl)cc2)cc1Cl)NC(=O)c1cn(C)nc1C(F)F (stereo not shown) [Compound 1.462, 3-difluoromethyl-1-methyl-1H-pyrazole-4-carboxylic acid [2-(3,4′-dichlorobiphenyl-4-yl)-1-methyl-ethyl]-amide]
